Assay results published in patent US6355799B1, “Substituted benzene compounds, process for their preparation, and herbicidal and defoliant compositions containing them” (ISK Americas Incorporated, priority 1997, dated 2002).

Columns and labels:
Format in all cases: in vivo
[1] = test system: upland rice (Oryza sp., var. Tebonnet, RICE); assay: Pre-emerge test, crop safety; conditions: pre-emerge, rated 14 days after application, 0 = no damage, 100 = complete death
Outline: (§1)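 Plants grown in 10 cm pots of sandy loam mix received acetone-dissolved compounds through a moving flat-fan nozzle. Doses ranged from 15 to 1000 g ai/ha. Pre-emerge pots were seeded one day earlier, post-emerge pots 8–21 days earlier. Fourteen days on, each pot was graded 0–100 for damage.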

[2] = test system: field corn (Zea mays L., var. Dekalb 535, CORN); assay: Pre-emerge test, crop safety; conditions: pre-emerge, rated 14 days after application, 0 = no damage, 100 = complete death
Outline: as §1

[3] = test system: redroot pigweed (Amaranthus retroflexus, AMARE); assay: Pre-emerge test, greenhouse herbicide activity screening; conditions: pre-emerge, rated 14 days after application, 0 = no damage, 100 = complete death
Outline: (§2)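 Rating: 0–100 visual injury, 14 DAA. Application: acetone, 187 l/ha, 15–1000 g ai/ha, flat-fan track sprayer with nozzle 40–45 cm above soil or canopy. Post-emerge runs used 0.25% v/v surfactant on 2–3 leaf plants.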

[4] = test system: green foxtail (Setaria viridis, SETVI); assay: Post-emerge test, greenhouse herbicide activity screening; conditions: phytotoxicity rating 0-100 (0 no damage, 100 complete death), 14 days after application
Outline: (§3)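 Each test used a mechanized track sprayer delivering 187 l/ha of acetone solution at 15–1000 g ai/ha. Post-emerge foliage at 2–3 leaves was treated with added 0.25% v/v non-ionic surfactant and bottom-watered only. Injury was assessed on day 14, where 100 means total kill.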

[5] = test system: johnsongrass (Sorghum halepense, SORHA); assay: as above; conditions: phytotoxicity rating 0-100 (0 no damage, 100 complete death), 14 days after application
Outline: as §3

[6] = test system: barnyardgrass (Echinochloa crus-galli, ECHCG); assay: as above; conditions: phytotoxicity rating 0-100 (0 no damage, 100 complete death), 14 days after application
Outline: as §3

[7] = test system: velvetleaf (Abutilon theophrasti, ABUTH); assay: as above; conditions: phytotoxicity rating 0-100 (0 no damage, 100 complete death), 14 days after application
Outline: as §3

[8] = test system: lambsquarters (Chenopodium album, CHEAL); assay: as above; conditions: phytotoxicity rating 0-100 (0 no damage, 100 complete death), 14 days after application
Outline: as §3

[9] = test system: large crabgrass (Digitaria sanguinalis, DIGSA); assay: as above; conditions: phytotoxicity rating 0-100 (0 no damage, 100 complete death), 14 days after application
Outline: as §3

[10] = test system: redroot pigweed (Amaranthus retroflexus, AMARE); assay: as above; conditions: phytotoxicity rating 0-100 (0 no damage, 100 complete death), 14 days after application
Outline: as §3

[11] = test system: sicklepod (Cassia obtusifolia, CASOB); assay: as above; conditions: phytotoxicity rating 0-100 (0 no damage, 100 complete death), 14 days after application
Outline: as §3

[12] = test system: common ragweed (Ambrosia artemisizfolia L., AMBEL); assay: as above; conditions: 250 g ai/ha; phytotoxicity rating 0-100 (0 no damage, 100 complete death), 14 days after application
Outline: as §3

[13] = test system: ivyleaf morningglory (Ipomoea hederacea, IPOHE); assay: as above; conditions: phytotoxicity rating 0-100 (0 no damage, 100 complete death), 14 days after application
Outline: as §3

[14] = test system: upland rice (Oryza sp., var. Tebonnet, RICE); assay: Post-emerge test, crop safety; conditions: phytotoxicity rating 0-100 (0 no damage, 100 complete death), 14 days after application
Outline: as §1

[15] = test system: field corn (Zea mays L., var. Dekalb 535, CORN); assay: Post-emerge test, crop safety; conditions: phytotoxicity rating 0-100 (0 no damage, 100 complete death), 14 days after application
Outline: as §1

[16] = test system: green foxtail (Setaria viridis, SETVI); assay: Pre-emerge test, greenhouse herbicide activity screening; conditions: pre-emerge, rated 14 days after application, 0 = no damage, 100 = complete death
Outline: as §2

[17] = test system: johnsongrass (Sorghum halepense, SORHA); assay: as above; conditions: pre-emerge, rated 14 days after application, 0 = no damage, 100 = complete death
Outline: as §2

[18] = test system: barnyardgrass (Echinochloa crus-galli, ECHCG); assay: as above; conditions: pre-emerge, rated 14 days after application, 0 = no damage, 100 = complete death
Outline: as §2

[19] = test system: velvetleaf (Abutilon theophrasti, ABUTH); assay: as above; conditions: pre-emerge, rated 14 days after application, 0 = no damage, 100 = complete death
Outline: as §2

[20] = test system: lambsquarters (Chenopodium album, CHEAL); assay: as above; conditions: pre-emerge, rated 14 days after application, 0 = no damage, 100 = complete death
Outline: as §2

[21] = test system: large crabgrass (Digitaria sanguinalis, DIGSA); assay: as above; conditions: pre-emerge, rated 14 days after application, 0 = no damage, 100 = complete death
Outline: as §2

[22] = test system: sicklepod (Cassia obtusifolia, CASOB); assay: as above; conditions: pre-emerge, rated 14 days after application, 0 = no damage, 100 = complete death
Outline: as §2

[23] = test system: ivyleaf morningglory (Ipomoea hederacea, IPOHE); assay: as above; conditions: pre-emerge, rated 14 days after application, 0 = no damage, 100 = complete death
Outline: as §2

SMILES: CCOC(=O)CC(=O)Nc1c(OC(=O)CC(=O)OCC)c(Cl)cc(F)c1-n1c(=O)cc(C(F)(F)F)n(C)c1=O [2-16]
- Pre-emerge crop damage RICE (phytotoxicity rating, scale 0-100) ([1]; 63 g ai/ha): 0
- Pre-emerge crop damage RICE (phytotoxicity rating, scale 0-100) ([1]; 250 g ai/ha): 15
- Pre-emerge crop damage CORN (phytotoxicity rating, scale 0-100) ([2]; 63 g ai/ha): 0
- Pre-emerge crop damage CORN (phytotoxicity rating, scale 0-100) ([2]; 250 g ai/ha): 20
- Pre-emerge Herbicidal Activity AMARE (phytotoxicity rating, scale 0-100) ([3]; 63 g ai/ha): 50
- Pre-emerge Herbicidal Activity AMARE (phytotoxicity rating, scale 0-100) ([3]; 250 g ai/ha): 100
- Post-emerge Herbicidal Activity SETVI ([4]; 63 g ai/ha): 50
- Post-emerge Herbicidal Activity SETVI ([4]; 250 g ai/ha): 100
- Post-emerge Herbicidal Activity SORHA ([5]; 63 g ai/ha): 40
- Post-emerge Herbicidal Activity SORHA ([5]; 250 g ai/ha): 95
- Post-emerge Herbicidal Activity ECHCG ([6]; 63 g ai/ha): 90
- Post-emerge Herbicidal Activity ECHCG ([6]; 250 g ai/ha): 100
- Post-emerge Herbicidal Activity ABUTH ([7]; 63 g ai/ha): 100
- Post-emerge Herbicidal Activity ABUTH ([7]; 250 g ai/ha): 100
- Post-emerge Herbicidal Activity CHEAL ([8]; 63 g ai/ha): 80
- Post-emerge Herbicidal Activity CHEAL ([8]; 250 g ai/ha): 100
- Post-emerge Herbicidal Activity DIGSA ([9]; 63 g ai/ha): 20
- Post-emerge Herbicidal Activity DIGSA ([9]; 250 g ai/ha): 60
- Post-emerge Herbicidal Activity AMARE ([10]; 63 g ai/ha): 50
- Post-emerge Herbicidal Activity AMARE ([10]; 250 g ai/ha): 100
- Post-emerge Herbicidal Activity CASOB ([11]; 63 g ai/ha): 10
- Post-emerge Herbicidal Activity CASOB ([11]; 250 g ai/ha): 80
- Post-emerge Herbicidal Activity AMBEL [12]: 100
- Post-emerge Herbicidal Activity IPOHE ([13]; 63 g ai/ha): 99
- Post-emerge Herbicidal Activity IPOHE ([13]; 250 g ai/ha): 100
- Post-emerge Herbicidal Activity RICE (crop damage) ([14]; 63 g ai/ha): 40
- Post-emerge Herbicidal Activity RICE (crop damage) ([14]; 250 g ai/ha): 45
- Post-emerge Herbicidal Activity CORN (crop damage) ([15]; 63 g ai/ha): 70
- Post-emerge Herbicidal Activity CORN (crop damage) ([15]; 250 g ai/ha): 90
- Pre-emerge Herbicidal Activity SETVI (phytotoxicity rating, scale 0-100) ([16]; 63 g ai/ha): 0
- Pre-emerge Herbicidal Activity SETVI (phytotoxicity rating, scale 0-100) ([16]; 250 g ai/ha): 100
- Pre-emerge Herbicidal Activity SORHA (phytotoxicity rating, scale 0-100) ([17]; 63 g ai/ha): 0
- Pre-emerge Herbicidal Activity SORHA (phytotoxicity rating, scale 0-100) ([17]; 250 g ai/ha): 80
- Pre-emerge Herbicidal Activity ECHCG (phytotoxicity rating, scale 0-100) ([18]; 63 g ai/ha): 0
- Pre-emerge Herbicidal Activity ECHCG (phytotoxicity rating, scale 0-100) ([18]; 250 g ai/ha): 40
- Pre-emerge Herbicidal Activity ABUTH (phytotoxicity rating, scale 0-100) ([19]; 63 g ai/ha): 80
- Pre-emerge Herbicidal Activity ABUTH (phytotoxicity rating, scale 0-100) ([19]; 250 g ai/ha): 100
- Pre-emerge Herbicidal Activity CHEAL (phytotoxicity rating, scale 0-100) ([20]; 63 g ai/ha): 95
- Pre-emerge Herbicidal Activity CHEAL (phytotoxicity rating, scale 0-100) ([20]; 250 g ai/ha): 100
- Pre-emerge Herbicidal Activity DIGSA (phytotoxicity rating, scale 0-100) ([21]; 63 g ai/ha): 0
- Pre-emerge Herbicidal Activity DIGSA (phytotoxicity rating, scale 0-100) ([21]; 250 g ai/ha): 100
- Pre-emerge Herbicidal Activity CASOB (phytotoxicity rating, scale 0-100) ([22]; 63 g ai/ha): 0
- Pre-emerge Herbicidal Activity CASOB (phytotoxicity rating, scale 0-100) ([22]; 250 g ai/ha): 100
- Pre-emerge Herbicidal Activity IPOHE (phytotoxicity rating, scale 0-100) ([23]; 63 g ai/ha): 0
- Pre-emerge Herbicidal Activity IPOHE (phytotoxicity rating, scale 0-100) ([23]; 250 g ai/ha): 90

SMILES: COc1c(Cl)cc(F)c(-n2c(=O)cc(C(F)(F)F)n(C)c2=O)c1NC(=O)C1CCCCC1 [2-19]
- Pre-emerge crop damage RICE (phytotoxicity rating, scale 0-100) ([1]; 63 g ai/ha): 10
- Pre-emerge crop damage RICE (phytotoxicity rating, scale 0-100) ([1]; 250 g ai/ha): 60
- Pre-emerge crop damage CORN (phytotoxicity rating, scale 0-100) ([2]; 63 g ai/ha): 5
- Pre-emerge crop damage CORN (phytotoxicity rating, scale 0-100) ([2]; 250 g ai/ha): 40
- Pre-emerge Herbicidal Activity AMARE (phytotoxicity rating, scale 0-100) ([3]; 63 g ai/ha): 80
- Pre-emerge Herbicidal Activity AMARE (phytotoxicity rating, scale 0-100) ([3]; 250 g ai/ha): 100
- Post-emerge Herbicidal Activity SETVI ([4]; 63 g ai/ha): 0
- Post-emerge Herbicidal Activity SETVI ([4]; 250 g ai/ha): 30
- Post-emerge Herbicidal Activity SORHA ([5]; 63 g ai/ha): 0
- Post-emerge Herbicidal Activity SORHA ([5]; 250 g ai/ha): 0
- Post-emerge Herbicidal Activity ECHCG ([6]; 63 g ai/ha): 0
- Post-emerge Herbicidal Activity ECHCG ([6]; 250 g ai/ha): 0
- Post-emerge Herbicidal Activity ABUTH ([7]; 63 g ai/ha): 90
- Post-emerge Herbicidal Activity ABUTH ([7]; 250 g ai/ha): 100
- Post-emerge Herbicidal Activity CHEAL ([8]; 63 g ai/ha): 50
- Post-emerge Herbicidal Activity CHEAL ([8]; 250 g ai/ha): 50
- Post-emerge Herbicidal Activity DIGSA ([9]; 63 g ai/ha): 0
- Post-emerge Herbicidal Activity DIGSA ([9]; 250 g ai/ha): 0
- Post-emerge Herbicidal Activity AMARE ([10]; 63 g ai/ha): 40
- Post-emerge Herbicidal Activity AMARE ([10]; 250 g ai/ha): 75
- Post-emerge Herbicidal Activity CASOB ([11]; 63 g ai/ha): 0
- Post-emerge Herbicidal Activity CASOB ([11]; 250 g ai/ha): 10
- Post-emerge Herbicidal Activity AMBEL [12]: 30
- Post-emerge Herbicidal Activity IPOHE ([13]; 63 g ai/ha): 70
- Post-emerge Herbicidal Activity IPOHE ([13]; 250 g ai/ha): 100
- Post-emerge Herbicidal Activity RICE (crop damage) ([14]; 63 g ai/ha): 0
- Post-emerge Herbicidal Activity RICE (crop damage) ([14]; 250 g ai/ha): 20
- Post-emerge Herbicidal Activity CORN (crop damage) ([15]; 63 g ai/ha): 0
- Post-emerge Herbicidal Activity CORN (crop damage) ([15]; 250 g ai/ha): 0
- Pre-emerge Herbicidal Activity SETVI (phytotoxicity rating, scale 0-100) ([16]; 63 g ai/ha): 20
- Pre-emerge Herbicidal Activity SETVI (phytotoxicity rating, scale 0-100) ([16]; 250 g ai/ha): 100
- Pre-emerge Herbicidal Activity SORHA (phytotoxicity rating, scale 0-100) ([17]; 63 g ai/ha): 0
- Pre-emerge Herbicidal Activity SORHA (phytotoxicity rating, scale 0-100) ([17]; 250 g ai/ha): 60
- Pre-emerge Herbicidal Activity ECHCG (phytotoxicity rating, scale 0-100) ([18]; 63 g ai/ha): 0
- Pre-emerge Herbicidal Activity ECHCG (phytotoxicity rating, scale 0-100) ([18]; 250 g ai/ha): 50
- Pre-emerge Herbicidal Activity ABUTH (phytotoxicity rating, scale 0-100) ([19]; 63 g ai/ha): 90
- Pre-emerge Herbicidal Activity ABUTH (phytotoxicity rating, scale 0-100) ([19]; 250 g ai/ha): 100
- Pre-emerge Herbicidal Activity CHEAL (phytotoxicity rating, scale 0-100) ([20]; 63 g ai/ha): 95
- Pre-emerge Herbicidal Activity CHEAL (phytotoxicity rating, scale 0-100) ([20]; 250 g ai/ha): 100
- Pre-emerge Herbicidal Activity DIGSA (phytotoxicity rating, scale 0-100) ([21]; 63 g ai/ha): 40
- Pre-emerge Herbicidal Activity DIGSA (phytotoxicity rating, scale 0-100) ([21]; 250 g ai/ha): 100
- Pre-emerge Herbicidal Activity CASOB (phytotoxicity rating, scale 0-100) ([22]; 63 g ai/ha): 0
- Pre-emerge Herbicidal Activity CASOB (phytotoxicity rating, scale 0-100) ([22]; 250 g ai/ha): 10
- Pre-emerge Herbicidal Activity IPOHE (phytotoxicity rating, scale 0-100) ([23]; 63 g ai/ha): 10
- Pre-emerge Herbicidal Activity IPOHE (phytotoxicity rating, scale 0-100) ([23]; 250 g ai/ha): 100
